Results: ChEMBL document CHEMBL1129515, “Synthesis and biological evaluation of1',2'-seconucleo-5'- phosphonates” (1996)

Columns and labels:
unidentified adenovirus = assay: Inhibitory activity of compound against Adenovirus type 2 (AD2) was evaluated in vitro; Inactive; format: functional
[1] = test system: Vesicular stomatitis virus; assay: Inhibitory activity of compound against Vesicular stomatitis virus (VSV) was evaluated in vitro; Inactive; format: functional
[2] = test system: Sandfly fever Sicilian virus; assay: (§1) Inhibitory activity of compound against […] was evaluated in vitro; Inactive; format: functional
Rift Valley fever virus = assay: as §1; format: functional
Punta Toro virus = assay: Inhibitory activity of compound against punto toro virus (PT) was evaluated in vitro; Inactive; format: functional
Pichinde virus = assay: Inhibitory activity of compound against pichinde virus (PIC) was evaluated in vitro; Inactive; format: functional
[3] = test system: Venezuelan equine encephalitis virus; assay: Inhibitory activity of compound against Venezuelan equine encephalomyelitis virus (VEE) was evaluated in vitro; Inactive; format: functional
[4] = test system: Japanese encephalitis virus; assay: Inhibitory activity of compound against japanese encephalitis virus (JBE) was evaluated in vitro; Inactive; format: functional
[5] = test system: Human immunodeficiency virus; assay: Inhibitory activity of compound against human immunodeficiency virus (HIV) was evaluated in vitro; Inactive; format: functional, Human immunodeficiency virus 1
Yellow fever virus = assay: Inhibitory activity of compound against Yellow fever virus (YF) was evaluated in vitro; Inactive; format: functional

Measured: Dose

CC(O)C(CP(=O)(O)O)OCn1ccc(=O)[nH]c1=O (stereo not given)
320 µg/mL: all assays above

CCOP(=O)(C[C@H](O)[C@H](C)OCc1ccccc1)OCC
320 µg/mL: all assays above

CCOP(=O)(O)CC(OCn1cc(C)c(=O)[nH]c1=O)C(C)O (stereo not given)
320 µg/mL: all assays above

Cc1cn(COC(CP(=O)(O)O)C(C)O)c(=O)[nH]c1=O (stereo not given)
320 µg/mL: all assays above

CCOP(=O)(O)CC(OCn1ccc(=O)[nH]c1=O)C(C)O (stereo not given)
320 µg/mL: all assays above

CC(O)C(CP(=O)(O)O)OCn1ccc(N)nc1=O (stereo not given)
320 µg/mL: all assays above

CCOP(=O)(C[C@H](O)[C@H](COCc1ccccc1)OCc1ccccc1)OCC
320 µg/mL: all assays above

Cc1cn(COC(CP(=O)(O)O)C(O)CO)c(=O)[nH]c1=O (stereo not given)
320 µg/mL: all assays above

Cc1cn(COC2CP(=O)(Oc3ccccc3)OC2C)c(=O)[nH]c1=O (stereo not given)
320 µg/mL: all assays above
